Source: the NIST ThermoML archive (doi:10.1016/j.fluid.2014.09.014)
± gives the expanded uncertainty stated by the source.

Assay: refractive index (other wavelength) (dimensionless); xn = mol fraction of the nth substance listed
Conditions: 303.15 K, 101 kPa, Liquid, Standard Abbe refractometry

CC(C)OC(C)C [diisopropyl ether] + CC(C)O
refractive index
Conditions	Wavelength=486.1 nm	Wavelength=546.1 nm	Wavelength=587.6 nm	Wavelength=589.3 nm	Wavelength=632.8 nm	Wavelength=644 nm	Wavelength=706.5 nm
x1 = 0.0277	–	1.37435 ± 0.00032	1.37285 ± 0.00032	1.37279 ± 0.00032	1.37149 ± 0.00032	1.37119 ± 0.00032	1.36973 ± 0.00032
x1 = 0.0507	–	1.3743 ± 0.00032	1.3728 ± 0.00032	1.37274 ± 0.00032	1.37145 ± 0.00032	1.37115 ± 0.00032	1.36969 ± 0.00032
x1 = 0.051	–	1.37423 ± 0.00032	1.37273 ± 0.00032	1.37268 ± 0.00032	1.37138 ± 0.00032	1.37107 ± 0.00032	1.36962 ± 0.00032
x1 = 0.0717	–	1.37395 ± 0.00032	1.37244 ± 0.00032	1.37238 ± 0.00032	1.37109 ± 0.00032	1.37079 ± 0.00032	1.36934 ± 0.00032
x1 = 0.1528	–	1.37331 ± 0.00032	1.37181 ± 0.00032	1.37176 ± 0.00032	1.37047 ± 0.00032	1.37018 ± 0.00032	1.36872 ± 0.00032
x1 = 0.1553	–	1.37331 ± 0.00032	1.37181 ± 0.00032	1.37176 ± 0.00032	1.37047 ± 0.00032	1.37018 ± 0.00032	1.36872 ± 0.00032
x1 = 0.1938	–	1.37303 ± 0.00033	1.37153 ± 0.00033	1.37147 ± 0.00033	1.37018 ± 0.00033	1.36988 ± 0.00033	1.36843 ± 0.00033
x1 = 0.2029	1.37549 ± 0.00033	1.37266 ± 0.00033	1.37116 ± 0.00033	1.37111 ± 0.00033	1.36981 ± 0.00033	1.36952 ± 0.00033	1.36807 ± 0.00033
x1 = 0.245	1.37506 ± 0.00033	1.37223 ± 0.00033	1.37075 ± 0.00033	1.37069 ± 0.00033	1.36941 ± 0.00033	1.36911 ± 0.00033	1.36767 ± 0.00033
x1 = 0.297	1.37446 ± 0.00034	1.37163 ± 0.00034	1.37013 ± 0.00034	1.37008 ± 0.00034	1.3688 ± 0.00034	1.3685 ± 0.00034	1.36705 ± 0.00034
x1 = 0.2973	1.37467 ± 0.00034	1.37184 ± 0.00034	1.37036 ± 0.00034	1.37031 ± 0.00034	1.36902 ± 0.00034	1.36872 ± 0.00034	1.36727 ± 0.00034
x1 = 0.3068	1.37433 ± 0.00034	1.37149 ± 0.00034	1.37001 ± 0.00034	1.36996 ± 0.00034	1.36867 ± 0.00034	1.36837 ± 0.00034	1.36692 ± 0.00034
x1 = 0.398	1.37309 ± 0.00035	1.37025 ± 0.00035	1.36877 ± 0.00035	1.36872 ± 0.00035	1.36744 ± 0.00035	1.36715 ± 0.00035	1.3657 ± 0.00035
x1 = 0.4609	1.37245 ± 0.00035	1.3696 ± 0.00035	1.36818 ± 0.00035	1.36807 ± 0.00035	1.3668 ± 0.00035	1.3665 ± 0.00035	1.36501 ± 0.00035
x1 = 0.5434	1.37161 ± 0.00036	1.36879 ± 0.00036	1.36731 ± 0.00036	1.36726 ± 0.00036	1.36598 ± 0.00036	1.36567 ± 0.00036	1.36425 ± 0.00036
x1 = 0.6032	1.37096 ± 0.00037	1.36815 ± 0.00037	1.36667 ± 0.00037	1.36661 ± 0.00037	1.36533 ± 0.00037	1.36504 ± 0.00037	1.36362 ± 0.00037
x1 = 0.6371	1.37059 ± 0.00038	1.36779 ± 0.00038	1.36631 ± 0.00038	1.36626 ± 0.00038	1.36497 ± 0.00038	1.36466 ± 0.00038	1.36326 ± 0.00038
x1 = 0.701	1.36992 ± 0.00039	1.36711 ± 0.00039	1.36564 ± 0.00039	1.36559 ± 0.00039	1.36431 ± 0.00039	1.36401 ± 0.00039	1.36259 ± 0.00039
x1 = 0.754	1.36954 ± 0.00039	1.36673 ± 0.00039	1.36525 ± 0.00039	1.36519 ± 0.00039	1.36391 ± 0.00039	1.36362 ± 0.00039	1.36221 ± 0.00039
x1 = 0.791	1.36913 ± 0.0004	1.36633 ± 0.0004	1.36485 ± 0.0004	1.3648 ± 0.0004	1.36352 ± 0.0004	1.36323 ± 0.0004	1.36182 ± 0.0004
x1 = 0.8296	1.3688 ± 0.00041	1.36599 ± 0.00041	1.36453 ± 0.00041	1.36447 ± 0.00041	1.3632 ± 0.00041	1.3629 ± 0.00041	1.36148 ± 0.00041
x1 = 0.8864	1.36856 ± 0.00042	1.36576 ± 0.00042	1.3643 ± 0.00042	1.36424 ± 0.00042	1.36297 ± 0.00042	1.36267 ± 0.00042	1.36126 ± 0.00042
x1 = 0.8903	1.36813 ± 0.00042	1.36533 ± 0.00042	1.36386 ± 0.00042	1.36381 ± 0.00042	1.36254 ± 0.00042	1.36225 ± 0.00042	1.36083 ± 0.00042
x1 = 0.9113	1.36791 ± 0.00042	1.36511 ± 0.00042	1.36365 ± 0.00042	1.3636 ± 0.00042	1.36233 ± 0.00042	1.36203 ± 0.00042	1.36061 ± 0.00042
x1 = 0.9547	1.36747 ± 0.00043	1.36465 ± 0.00043	1.36319 ± 0.00043	1.36314 ± 0.00043	1.36187 ± 0.00043	1.36157 ± 0.00043	1.36016 ± 0.00043
x1 = 0.973	1.36711 ± 0.00043	1.3643 ± 0.00043	1.36285 ± 0.00043	1.36279 ± 0.00043	1.36153 ± 0.00043	1.36123 ± 0.00043	1.35983 ± 0.00043
x1 = 0.9771	1.36702 ± 0.00043	1.36421 ± 0.00043	1.36275 ± 0.00043	1.3627 ± 0.00043	1.36145 ± 0.00043	1.36115 ± 0.00043	1.35972 ± 0.00043
x1 = 1	1.36687 ± 0.00043	1.36406 ± 0.00043	1.3626 ± 0.00043	1.36255 ± 0.00043	1.3613 ± 0.00043	1.361 ± 0.00043	1.3596 ± 0.00043
